Patent publication US4315032A, “Process for preparation of adjacently disubstituted ketones” (Teitin Limited, priority 1979, dated 1982)
Like-named read-outs stand apart in the source and are kept apart here.

Assays:
[1] = test system: platelet aggregation (rabbit PRP); assay: Activity of Inhibiting Platelet Aggregation In Vitro (rabbit PRP, ADP); assay type: cell-based; conditions: ADP-disodium salt 5 μM final, 37° C., 2 min pre-incubation, minimum concentration whose inhibiting rate exceeded 50%
Description: The platelet aggregation inhibiting activities of test compounds including 7-hydroxy PGE1 of this invention were tested using rabbit PRP. The results are shown in terms of their concentrations at 50% inhibition (IC50) of platelet aggregation. As an aggregating agent, ADP-disodiumsalt having a final concentration of 5 μM was used.
(1) Preparation of platelet-enriched plasma (PRP)
Citrated blood (consisting of 1 part by volume of […] sodium citrate and 9 parts by volume of the blood) was prepared by taking blood from the ear veins of male rabbits having a body weight of 2.0 to 3.0 kg (white ordinary species). The citrated blood was centrifuged at 100 G for 10 minutes at room temperature, and the supernatant (PRP) was separated.
The PRP obtained was stored at room temperature, and used as early as possible. PRP stored for more than 4 hours after preparation was not used.
(2) Preparation of test drugs
Each test drug was dissolved in ethyl alcohol to a concentration of 10 mg/ml or 1 mg/ml, and diluted with physiological saline to adjust its concentration.
(3) Preparation of the aggregating agent
ADP disodium salt (a product of Kyowa Hakko Kabushiki Kaisha) was dissolved in 0.1 M tris-HCl buffer (pH 7.8) to prepare a solution having a concentration of 50 μM (final concentration 5 μM).
(1) Degree of platelet aggregation in a blank
Physiological saline (25 μl) and 25 μl of the aggregating agent solution were added to 200 μl of PRP which had been warmed in a cuvette at 37° C. of an aggregometer to aggregate platelet. The aggregation curve was recorded for 3 minutes by an aggregometer (a product of Rika Denki Kabushiki Kaisha). The maximum degree of aggregation in this platelet aggregation was defined as the maximum degree of aggregation of the blank.
(2) Test for inhibition of platelet aggregation
The solution of test drug (25 μl) was added to 200 of PRP, and the mixture was pre-incubated for 2 minutes in a cuvette of an aggregometer. Then, 25 μl of the ADP disodium solution (50 μM) was added, and the aggregation curve was recorded for 3 minutes. The maximum degree of platelet aggregation within this period was measured, and the inhibiting rate was calculated from the following equation. The mimimum concentration (expressed as final concentration) of the drug whose inhibiting rate exceeded 50% was shown as an IC50 value. [formula]
For details of the in vitro platelet aggregation inhibiting test, see H. M. Davis, J. Phyllis, K. Paul and W. Terry: Thromb. Res. 11, 217-226 (1977) and R. E. Anderson and J. G. Foulks: Thromb. Haemos. 36, 343-359 (1976).

[2] = test system: ulcer formation induced by indomethacin; assay: inhibiting action on the formation of ulcer in rats induced by indomethacin; assay type: in vivo, Male rats (Sprague Dawley species); conditions: indomethacin 20 mg/kg peroral, compound 0.5 × 2 mg/kg, S.C.; for Inhibiting rate (%): inhibition of ulcer formation
Description: By the method of Y. H. Lee et al. [Arch. Int. Pharmacodyn. Ther., 192, 370 (1971)], the inhibiting action of the compound No. 122 in Example 11 and compound No. 158 in Example 21 on the formation of ulcer in rats induced by indomethacin, a typical non-steroid anti-inflammatory agent, was evaluated.
Male rats (Sprague Dawley species; body weight 240-270 g) were used in the experiment. These rats had been caused to fast for 24 hours in separate cages before the initiation of the experiment. Indomethacin was orally administered to these rats, and 6 hours later, they were killed. Formation of ulcer in the fundus part was examined by measuring the area of the ulcer-forming part under a microscope. The compounds Nos. 122 and 158 were each subcutaneously administered at the end of 30 minutes and 2 hours, respectively, after the administration of indomethacin. The ulcer formation inhibiting rate of these compounds against a predetermined dose of indomethacin was determined.
The indomethacin was administered as a 0.5 ml aqueous suspension (containing two drops of a Tween-type nonionic surfactant per 14 ml of water). The compounds Nos. 122 and 158 were given in the form of a solution in a phosphate buffer (pH 7.4).

CCCCCC(O)/C=C/C1C(O)CC(=O)C1C(O)CCCCCC(=O)OC (stereo not drawn) [No. 150, dl 2-(1-hydroxy-7-keto-8-oxanonyl)-3-(3-hydroxy-1-trans-octenyl)-4-hydroxycyclopentanone]
IC50 [1]: > 10 µg/mL

CCCCC[C@H](O)/C=C/C1C(C(O)CCCCCC(=O)OC)C(=O)C[C@H]1O (stereo partly drawn) [No. 156, 2-(1-hydroxy-7-keto-8-oxanonyl)-3-[3(S)-hydroxy-1-trans-octenyl]-4(R)-hydroxycyclopentanone]
IC50 ([1]; Oryctolagus cuniculus, Platelet, read-out: IC50): 26.3 µg/mL

CCCCCC(O)/C=C/C1C(O)CC(=O)C1C(O)CCCCCC(=O)OC (stereo not drawn) [No. 122, 2-(1-hydroxy-7-keto-8-oxanonyl)-3-(3-hydroxy-1-trans-octenyl)-4-hydroxycyclopentanone]
Ulcer formation (ulcer coefficient) Average value ± S.E.M. [2]: 12.1 ± 4.1 | Inhibiting rate (%) [2]: 40.4%

CCCCCC(O)/C=C/C1C(O)CC(=O)C1C(O)CCCCCC(=O)OC (stereo not drawn) [No. 148, dl 2-(1-hydroxy-7-keto-8-oxanonyl)-3-(3-hydroxy-1-trans-octenyl)-4-hydroxycyclopentanone]
IC50 [1]: > 10 µg/mL

CCCCCC(O)/C=C/C1C(O)CC(=O)C1C(O)CCCCCC(=O)OC (stereo not drawn) [No. 144, dl 2-(1-hydroxy-7-keto-8-oxanonyl)-3-(3-hydroxy-1-trans-octenyl)-4-hydroxycyclopentanone]
IC50 [1]: > 10 µg/mL

CCCCCC(O)/C=C/C1C(O)CC(=O)C1C(O)CCCCCC(=O)OC (stereo not drawn) [No. 146, dl 2-(1-hydroxy-7-keto-8-oxanonyl)-3-(3-hydroxy-1-trans-octenyl)-4-hydroxycyclopentanone]
IC50 [1]: 24.5 µg/mL

CCCCC[C@H](O)/C=C/C1C(C(O)CCCCCC(=O)OC)C(=O)C[C@H]1O (stereo partly drawn) [No. 158, 2-(1-hydroxy-7-keto-8-oxanonyl)-3-[3(S)-hydroxy-1-trans-octenyl]-4(R)-hydroxycyclopentanone]
IC50 [1]: 41.5 µg/mL | Ulcer formation (ulcer coefficient) Average value ± S.E.M. [2]: 15.8 ± 5.1 | Inhibiting rate (%) [2]: 22.2%
